Earlier results as cited in patent US20070025945A1, “Stabilized pharmaceutical and cosmetic composition of catechins or derivatives thereof” (Anagen Therapeutics, Inc., priority 2005, published 2007).

Experiments:
[1] = tested on: 5-alpha-reductase isozyme I / isozyme II; settings: 5-alpha-reductase isozymes
sebum production = settings: topical application directly to the forehead
[2] = tested on: teleocidin-induced tumor promotion; settings: topically applied to skin; mice previously initiated with DMBA

## O=C(O[C@@H]1Cc2c(O)cc(O)cc2O[C@@H]1c1ccc(O)c(O)c1)c1cc(O)c(O)c(O)c1 [ECG, (−)-epicatechin-3-gallates]
[1]
  activity against isozyme I versus isozyme II: more active against isozyme I than isozyme II

## O=C(O[C@@H]1Cc2c(O)cc(O)cc2O[C@@H]1c1cc(O)c(O)c(O)c1)c1cc(O)c(O)c(O)c1 [EGCG, (−)-epigallocatechin-3-gallates]
Sebum production
  sebum production from the human forehead: inhibited
[2]
  teleocidin-induced tumor promotion: inhibits
[1]
  activity against isozyme I versus isozyme II: more active against isozyme I than isozyme II

## CCCCC/C=C\C/C=C\C/C=C\CCCCC(=O)O [gamma-linolenic acid]
Sebum production
  sebum production from the human forehead: inhibited
